# Experimental data published in the kinase profiling compilation of Christmann-Franck et al. (2016).
# What was measured:
# Assay in all cases: radiometric filter-binding kinase assay, Kinaseprofiler
# PTK6 (human) = PTK6 (human) (UniProt Q13882); conditions: ATP 15 µM
# MKNK2 (human) = MKNK2 (human) (UniProt Q9HBH9); conditions: ATP 120 µM
# ERBB4 (human) = ERBB4 (human) (UniProt Q15303); conditions: ATP 15 µM
# MAP3K9 (human) = MAP3K9 (human) (UniProt P80192); conditions: ATP 45 µM
# MAPK13 (human) = MAPK13 (human) (UniProt O15264); conditions: ATP 15 µM
# MAPK13 (human), sequence (O15264 whole entry, looked up): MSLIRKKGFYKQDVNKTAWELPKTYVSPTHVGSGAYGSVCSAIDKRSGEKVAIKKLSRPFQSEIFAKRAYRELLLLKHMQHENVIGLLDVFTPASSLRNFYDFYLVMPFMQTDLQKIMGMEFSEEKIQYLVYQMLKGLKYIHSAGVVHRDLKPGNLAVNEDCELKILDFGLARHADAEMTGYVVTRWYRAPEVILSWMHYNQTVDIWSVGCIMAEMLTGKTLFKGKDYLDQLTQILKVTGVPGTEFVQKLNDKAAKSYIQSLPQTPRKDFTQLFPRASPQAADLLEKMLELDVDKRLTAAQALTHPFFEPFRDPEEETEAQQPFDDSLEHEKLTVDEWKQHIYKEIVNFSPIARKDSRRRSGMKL
# AURKC (human) = AURKC (human) (UniProt Q9UQB9); conditions: ATP 15 µM
# AURKC (human), sequence (Q9UQB9 whole entry, looked up): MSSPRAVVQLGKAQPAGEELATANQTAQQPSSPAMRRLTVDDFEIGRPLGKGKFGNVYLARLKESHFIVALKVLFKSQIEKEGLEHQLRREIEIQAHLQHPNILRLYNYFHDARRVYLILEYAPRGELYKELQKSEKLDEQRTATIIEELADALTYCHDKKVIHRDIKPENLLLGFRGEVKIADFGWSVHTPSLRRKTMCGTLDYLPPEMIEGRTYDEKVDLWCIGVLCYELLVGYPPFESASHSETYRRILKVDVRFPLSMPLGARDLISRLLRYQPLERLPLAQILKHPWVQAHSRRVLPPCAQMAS
# PRKACA (human) = PRKACA (human) (UniProt P17612); conditions: ATP 10 µM
# CAMK1D (human) = CAMK1D (human) (UniProt Q8IU85); conditions: ATP 15 µM
# PRKCZ (human) = PRKCZ (human) (UniProt Q05513); conditions: ATP 15 µM
# PIM2 (human) = PIM2 (human) (UniProt Q9P1W9); conditions: ATP 15 µM
# PIM2 (human), sequence (Q9P1W9 whole entry, looked up): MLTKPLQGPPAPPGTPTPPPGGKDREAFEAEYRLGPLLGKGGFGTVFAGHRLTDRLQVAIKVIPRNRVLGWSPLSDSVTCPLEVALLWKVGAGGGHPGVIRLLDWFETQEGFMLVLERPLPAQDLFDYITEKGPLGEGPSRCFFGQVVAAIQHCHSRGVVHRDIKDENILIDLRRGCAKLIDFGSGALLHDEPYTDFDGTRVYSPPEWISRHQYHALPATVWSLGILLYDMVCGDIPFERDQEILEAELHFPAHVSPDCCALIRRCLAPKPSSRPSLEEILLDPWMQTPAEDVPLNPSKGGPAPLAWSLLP
# STK11 (human) = STK11 (human) (UniProt Q15831); conditions: ATP 155 µM
# MTOR (human) = MTOR (human) (UniProt P42345); conditions: ATP 70 µM
# [1] = target: JAK2 JH1 catalytic (human) (UniProt O60674); conditions: ATP 45 µM
# JAK2 JH1 catalytic (human), sequence (O60674 whole entry, looked up): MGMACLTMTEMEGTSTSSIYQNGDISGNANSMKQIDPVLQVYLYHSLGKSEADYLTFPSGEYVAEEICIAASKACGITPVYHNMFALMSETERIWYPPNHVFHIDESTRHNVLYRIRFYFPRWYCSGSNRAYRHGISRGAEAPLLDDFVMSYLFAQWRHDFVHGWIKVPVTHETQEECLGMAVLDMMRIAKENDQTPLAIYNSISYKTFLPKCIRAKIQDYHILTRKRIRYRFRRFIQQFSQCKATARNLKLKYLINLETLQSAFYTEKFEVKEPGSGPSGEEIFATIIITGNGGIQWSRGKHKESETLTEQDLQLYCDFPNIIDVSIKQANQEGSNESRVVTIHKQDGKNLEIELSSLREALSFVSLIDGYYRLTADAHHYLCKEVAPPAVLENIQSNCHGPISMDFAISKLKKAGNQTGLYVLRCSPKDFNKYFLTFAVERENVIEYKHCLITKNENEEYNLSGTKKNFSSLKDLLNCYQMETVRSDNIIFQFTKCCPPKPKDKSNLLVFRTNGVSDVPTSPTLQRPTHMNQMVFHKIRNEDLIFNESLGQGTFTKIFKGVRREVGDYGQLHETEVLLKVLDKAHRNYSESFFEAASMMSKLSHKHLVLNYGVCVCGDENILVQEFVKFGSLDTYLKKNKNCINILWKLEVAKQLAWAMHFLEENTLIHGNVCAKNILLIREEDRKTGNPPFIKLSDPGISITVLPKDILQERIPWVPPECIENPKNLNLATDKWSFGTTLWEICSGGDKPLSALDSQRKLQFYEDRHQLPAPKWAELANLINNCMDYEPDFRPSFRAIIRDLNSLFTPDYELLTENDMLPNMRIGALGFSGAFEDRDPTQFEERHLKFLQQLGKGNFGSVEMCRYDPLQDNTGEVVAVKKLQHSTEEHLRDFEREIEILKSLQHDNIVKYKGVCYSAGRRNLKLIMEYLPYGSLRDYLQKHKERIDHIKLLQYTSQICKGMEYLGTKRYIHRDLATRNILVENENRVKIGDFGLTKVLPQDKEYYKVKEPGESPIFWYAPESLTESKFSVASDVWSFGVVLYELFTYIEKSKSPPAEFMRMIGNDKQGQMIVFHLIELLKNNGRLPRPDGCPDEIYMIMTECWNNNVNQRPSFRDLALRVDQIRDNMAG
# GSG2 (human) = GSG2 (human) (UniProt Q8TF76); conditions: ATP 70 µM
# STK24 (human) = STK24 (human) (UniProt Q9Y6E0); conditions: ATP 15 µM
# INSR (human) = INSR (human) (UniProt P06213)
# INSR (human), sequence (P06213 whole entry, looked up): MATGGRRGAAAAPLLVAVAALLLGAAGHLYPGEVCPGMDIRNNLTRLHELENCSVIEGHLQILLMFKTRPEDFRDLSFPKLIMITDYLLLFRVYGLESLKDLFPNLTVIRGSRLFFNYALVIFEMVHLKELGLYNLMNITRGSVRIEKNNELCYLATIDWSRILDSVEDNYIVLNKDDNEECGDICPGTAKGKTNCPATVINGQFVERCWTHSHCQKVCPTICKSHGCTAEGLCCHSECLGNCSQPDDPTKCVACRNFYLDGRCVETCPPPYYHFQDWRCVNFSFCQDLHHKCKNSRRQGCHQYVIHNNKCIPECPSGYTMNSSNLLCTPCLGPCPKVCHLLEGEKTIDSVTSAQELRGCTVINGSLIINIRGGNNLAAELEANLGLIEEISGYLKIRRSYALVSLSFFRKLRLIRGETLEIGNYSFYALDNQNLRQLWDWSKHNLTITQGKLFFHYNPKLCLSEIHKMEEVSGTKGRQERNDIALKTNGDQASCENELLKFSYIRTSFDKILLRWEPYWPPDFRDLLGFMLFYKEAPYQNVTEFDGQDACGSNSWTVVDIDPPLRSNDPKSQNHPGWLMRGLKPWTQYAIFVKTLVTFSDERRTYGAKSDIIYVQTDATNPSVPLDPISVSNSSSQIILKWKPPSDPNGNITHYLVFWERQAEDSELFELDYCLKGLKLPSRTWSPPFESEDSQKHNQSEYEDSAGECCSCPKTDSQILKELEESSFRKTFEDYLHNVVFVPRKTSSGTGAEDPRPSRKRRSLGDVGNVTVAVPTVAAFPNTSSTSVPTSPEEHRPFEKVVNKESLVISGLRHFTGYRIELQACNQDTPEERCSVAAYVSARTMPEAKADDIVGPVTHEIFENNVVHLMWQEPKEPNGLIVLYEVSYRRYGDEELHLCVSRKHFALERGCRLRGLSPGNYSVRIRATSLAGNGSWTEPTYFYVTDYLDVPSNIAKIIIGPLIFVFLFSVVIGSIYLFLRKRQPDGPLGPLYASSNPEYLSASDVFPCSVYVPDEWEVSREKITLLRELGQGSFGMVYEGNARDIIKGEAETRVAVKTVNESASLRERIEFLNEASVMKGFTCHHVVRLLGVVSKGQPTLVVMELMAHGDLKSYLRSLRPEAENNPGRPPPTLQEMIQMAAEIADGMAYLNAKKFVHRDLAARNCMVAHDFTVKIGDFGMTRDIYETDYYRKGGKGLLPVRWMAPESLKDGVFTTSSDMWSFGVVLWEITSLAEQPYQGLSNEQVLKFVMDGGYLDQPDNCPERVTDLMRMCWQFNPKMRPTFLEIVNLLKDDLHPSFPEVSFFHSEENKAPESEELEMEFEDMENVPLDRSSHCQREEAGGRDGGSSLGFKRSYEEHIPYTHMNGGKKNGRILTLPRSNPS
# FGFR3 (human) = FGFR3 (human) (UniProt P22607); conditions: ATP 15 µM
# WNK3 (human) = WNK3 (human) (UniProt Q9BYP7); conditions: ATP 200 µM
# GCK (human) = GCK (human) (UniProt Q12851); conditions: ATP 200 µM
# EPHA5 (human) = EPHA5 (human) (UniProt P54756); conditions: ATP 10 µM
# FGR (human) = FGR (human) (UniProt P09769); conditions: ATP 45 µM
# FGR (human), sequence (P09769 whole entry, looked up): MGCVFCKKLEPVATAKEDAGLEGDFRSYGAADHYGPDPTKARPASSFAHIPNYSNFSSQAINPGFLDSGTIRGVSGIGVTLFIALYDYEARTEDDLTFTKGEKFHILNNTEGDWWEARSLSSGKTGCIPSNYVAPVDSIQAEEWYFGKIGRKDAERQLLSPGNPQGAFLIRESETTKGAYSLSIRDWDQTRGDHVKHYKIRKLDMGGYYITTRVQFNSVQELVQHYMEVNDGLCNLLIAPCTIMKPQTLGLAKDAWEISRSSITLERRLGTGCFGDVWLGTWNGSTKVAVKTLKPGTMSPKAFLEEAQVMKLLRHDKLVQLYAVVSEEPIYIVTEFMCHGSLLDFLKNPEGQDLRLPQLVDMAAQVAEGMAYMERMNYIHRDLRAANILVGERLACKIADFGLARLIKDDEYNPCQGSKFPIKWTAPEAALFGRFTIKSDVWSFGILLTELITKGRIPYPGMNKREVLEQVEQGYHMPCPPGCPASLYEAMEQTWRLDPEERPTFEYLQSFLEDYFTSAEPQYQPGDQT
# CDK5 CDK5R1 p35 (human) = CDK5 CDK5R1 p35 (human) (UniProt Q00535+Q15078); conditions: ATP 15 µM
# RPS6KA3 KD1 KD2 (human) = RPS6KA3 KD1 KD2 (human) (UniProt P51812); conditions: ATP 10 µM
# CSNK2A2 (human) = CSNK2A2 (human) (UniProt P19784); conditions: ATP 10 µM
# CSNK2A2 (human), sequence (P19784 whole entry, looked up): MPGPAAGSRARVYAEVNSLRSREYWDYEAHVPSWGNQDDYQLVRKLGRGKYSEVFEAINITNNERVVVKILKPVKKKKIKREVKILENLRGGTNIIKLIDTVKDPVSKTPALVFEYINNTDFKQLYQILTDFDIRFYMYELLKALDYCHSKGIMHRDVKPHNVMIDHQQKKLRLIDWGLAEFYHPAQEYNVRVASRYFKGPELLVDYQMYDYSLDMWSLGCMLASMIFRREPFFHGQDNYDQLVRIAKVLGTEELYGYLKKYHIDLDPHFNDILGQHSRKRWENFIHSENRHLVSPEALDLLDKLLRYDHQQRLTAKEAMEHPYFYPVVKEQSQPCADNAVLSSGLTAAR
# PTK2B (human) = PTK2B (human) (UniProt Q14289); conditions: ATP 90 µM
# NTRK1 (human) = NTRK1 (human) (UniProt P04629); conditions: ATP 120 µM
# PIM1 (human) = PIM1 (human) (UniProt P11309); conditions: ATP 90 µM
# ROCK1 (human) = ROCK1 (human) (UniProt Q13464); conditions: ATP 70 µM
# YES1 (human) = YES1 (human) (UniProt P07947); conditions: ATP 45 µM
# NEK7 (human) = NEK7 (human) (UniProt Q8TDX7); conditions: ATP 45 µM
# EPHB4 (human) = EPHB4 (human) (UniProt P54760); conditions: ATP 10 µM
# [2] = tested on: RPS6KB1 (human), P23443 [T412E]; conditions: ATP 15 µM
# MKNK2 (human), sequence (Q9HBH9 whole entry, looked up): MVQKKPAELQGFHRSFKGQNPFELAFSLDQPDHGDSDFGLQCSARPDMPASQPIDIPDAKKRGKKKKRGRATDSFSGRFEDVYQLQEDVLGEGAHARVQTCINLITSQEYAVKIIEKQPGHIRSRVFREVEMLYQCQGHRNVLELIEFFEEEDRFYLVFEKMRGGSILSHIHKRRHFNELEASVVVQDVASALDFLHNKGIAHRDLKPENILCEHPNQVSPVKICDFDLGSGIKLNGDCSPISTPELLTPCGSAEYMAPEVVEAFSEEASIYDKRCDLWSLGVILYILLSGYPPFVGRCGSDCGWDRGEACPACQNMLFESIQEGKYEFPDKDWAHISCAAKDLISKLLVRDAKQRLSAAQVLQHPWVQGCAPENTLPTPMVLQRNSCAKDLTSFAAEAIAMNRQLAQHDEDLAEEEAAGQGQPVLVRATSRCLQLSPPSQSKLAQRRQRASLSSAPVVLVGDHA
structure (smiles),measurement,setting,value
O=C1Nc2ccccc2/C1=C1\Nc2ccccc2\C1=N/O,residual activity,PTK6 (human); compound 1.0 µM,91%
same,residual activity,PTK6 (human); compound 10.0 µM,23%
same,residual activity,MKNK2 (human); compound 1.0 µM,62%
same,residual activity,MKNK2 (human); compound 10.0 µM,18%
same,residual activity,ERBB4 (human); compound 1.0 µM,107%
same,residual activity,ERBB4 (human); compound 10.0 µM,99%
same,residual activity,MAP3K9 (human); compound 1.0 µM,6%
same,residual activity,MAP3K9 (human); compound 10.0 µM,1%
same,residual activity,MAPK13 (human); compound 1.0 µM,90%
same,residual activity,MAPK13 (human); compound 10.0 µM,82%
same,residual activity,AURKC (human); compound 1.0 µM,61%
same,residual activity,AURKC (human); compound 10.0 µM,49%
same,residual activity,PRKACA (human); compound 1.0 µM,90%
same,residual activity,PRKACA (human); compound 10.0 µM,54%
same,residual activity,CAMK1D (human); compound 1.0 µM,71%
same,residual activity,CAMK1D (human); compound 10.0 µM,56%
same,residual activity,PRKCZ (human); compound 1.0 µM,101%
same,residual activity,PRKCZ (human); compound 10.0 µM,98%
same,residual activity,PIM2 (human); compound 1.0 µM,68%
same,residual activity,PIM2 (human); compound 10.0 µM,38%
same,residual activity,STK11 (human); compound 1.0 µM,83%
same,residual activity,STK11 (human); compound 10.0 µM,44%
same,residual activity,MTOR (human); compound 1.0 µM,100%
same,residual activity,MTOR (human); compound 10.0 µM,98%
same,residual activity,[1]; compound 1.0 µM,92%
same,residual activity,[1]; compound 10.0 µM,11%
same,residual activity,GSG2 (human); compound 1.0 µM,26%
same,residual activity,GSG2 (human); compound 10.0 µM,19%
same,residual activity,STK24 (human); compound 1.0 µM,42%
same,residual activity,STK24 (human); compound 10.0 µM,10%
same,residual activity,"INSR (human); compound 1.0 µM, ATP 45 µM",35%
same,residual activity,"INSR (human); compound 1.0 µM, ATP 200 µM",17%
same,residual activity,"INSR (human); compound 10.0 µM, ATP 45 µM",19%
same,residual activity,"INSR (human); compound 10.0 µM, ATP 200 µM",10%
same,residual activity,FGFR3 (human); compound 1.0 µM,20%
same,residual activity,FGFR3 (human); compound 10.0 µM,2%
same,residual activity,WNK3 (human); compound 1.0 µM,89%
same,residual activity,WNK3 (human); compound 10.0 µM,60%
same,residual activity,GCK (human); compound 1.0 µM,13%
same,residual activity,GCK (human); compound 10.0 µM,1%
same,residual activity,EPHA5 (human); compound 1.0 µM,59%
same,residual activity,EPHA5 (human); compound 10.0 µM,9%
same,residual activity,FGR (human); compound 1.0 µM,8%
same,residual activity,FGR (human); compound 10.0 µM,1%
same,residual activity,CDK5 CDK5R1 p35 (human); compound 1.0 µM,5%
same,residual activity,CDK5 CDK5R1 p35 (human); compound 10.0 µM,1%
same,residual activity,RPS6KA3 KD1 KD2 (human); compound 1.0 µM,50%
same,residual activity,RPS6KA3 KD1 KD2 (human); compound 10.0 µM,7%
same,residual activity,CSNK2A2 (human); compound 1.0 µM,102%
same,residual activity,CSNK2A2 (human); compound 10.0 µM,58%
same,residual activity,PTK2B (human); compound 1.0 µM,14%
same,residual activity,PTK2B (human); compound 10.0 µM,2%
same,residual activity,NTRK1 (human); compound 1.0 µM,0%
same,residual activity,NTRK1 (human); compound 10.0 µM,0%
same,residual activity,PIM1 (human); compound 1.0 µM,76%
same,residual activity,PIM1 (human); compound 10.0 µM,47%
same,residual activity,ROCK1 (human); compound 1.0 µM,108%
same,residual activity,ROCK1 (human); compound 10.0 µM,92%
same,residual activity,YES1 (human); compound 1.0 µM,17%
same,residual activity,YES1 (human); compound 10.0 µM,0%
same,residual activity,NEK7 (human); compound 1.0 µM,106%
same,residual activity,NEK7 (human); compound 10.0 µM,102%
same,residual activity,EPHB4 (human); compound 1.0 µM,67%
same,residual activity,EPHB4 (human); compound 10.0 µM,13%
same,residual activity,[2]; compound 1.0 µM,37%
same,residual activity,[2]; compound 10.0 µM,13%
